Test results taken from publication PMC4663524 (Toxins, 2015).
Several values for one entry are separate records, joined by “and”; a condition that tells them apart may be missing. Equal values may be shown once.

Tests used:
[1] = Plasma toxicokinetics after a single intravenous bolus (DONiv, DONSiv); assay type: in vivo, pigs; settings: for Vd(area), apparent volume of distribution: DONS 1 or DONS 2, DONSiv 50 µg/kg BW; for peak concentration in plasma (mean of A + B): after DONSiv 50 µg/kg BW; for stability in plasma: after DONSiv injection
Procedure: (§1) The experiment was designed as a kinetic study. […] Due to the instability of DONS 2 and 3 upon evaporation to dryness, the standards of the three DONS were dissolved in water acidified with 2% formic acid.
(§2) A total of 16 castrated male pigs, crossbred German Landrace × Pietrain, were used for these kinetic experiments. After an adaption phase to the balance cages, eight animals underwent surgery per trial. Animals were equipped with two permanent intravenous catheters in the external vena jugularis for serial blood sampling. After surgery the animals were allowed to recover for one day. On test day, zero blood samples had to be collected from pigs before exposure. Zero blood samples served as reference values to which the data after oral or intravenous bolus related. Serial blood samples (10 mL) were drawn prior to feeding and after 15, 30, 60 and 90 min and then after two, three, four, six, eight, 10, 12, and 24 h for pigs receiving compounds by oral administration. For pigs dosed intravenously, shorter time intervals were chosen at the beginning: five, 10, 15, 20, 30, 45 min and then following the same intervals as for oral exposure. For a clear classification in result Table 1, Table 2, Table 3, Table 4, Table 5 and Table 6, we differentiated between IV- (intravenous bolus) and O- (oral bolus) animals. Due to repeated use of individuals it was numbered continuously.
(§3) Two different injection solutions were prepared for IV administration. […] After weighing, an individual amount was drawn up into syringes with a dose of 50 µg/kg BW. The concentrations of DONS 1, 2, and 3 in DONS standard solution were 3240, 1720, and 7300 µg/mL, respectively. […] Thereafter, the standard was mixed with physiological saline to prepare a 250 µg/mL DONS stock solution. The further handling was similar to DON.
(§4) For quantitative determination of DONS 1, 2, and 3 in plasma, an HPLC-MS/MS analysis was conducted on an Agilent 1200 (Agilent Technologies, Böblingen, Germany) series HPLC system coupled to a 4000 QTrap mass spectrometer (AB Sciex, Foster City, CA, USA). […] The retention times of DONS 1, 2, and 3 were 2.31, 4.71, and 5.88 min, respectively. Tandem mass spectrometric detection was carried out in negative ion mode after electrospray ionization at 600 °C (ion spray voltage: −4500 V). The method was validated in-house for all analytes based on the guidelines of the FDA and European community. Calibration graphs (0.3–480 ng/mL) were prepared and good linearity was achieved (r ≥ 0.99).
The LOD amounted to 0.22 ng/mL and the LOQ was 0.72 ng/mL.
A + B is the initial concentration at t = 0, i.e., C0, α, and β are the rate constant of distribution or elimination phase, respectively, and t the time (h). The non-linear curve fitting module of the Statistica for the Windows^TM operating system (StatSoft Inc., Tulsa, OK, USA) was used to fit the data to Equations (1) and (2).
Further kinetic parameters were derived from the fitted functions as also described by Prelusky et al.. The half-life was calculated as t1/2α=ln (2)/ka or α for absorption or distribution phase and t1/2β=ln(2)/kel or β for the elimination phase, respectively. […] The apparent volume of distribution by area (Vd(area)) following intravenous application was calculated by Vd(area) = D/AUC⋅t1/2β/ln(2) as an indicator of Vd corresponding to the elimination phase and thus covering large parts of the kinetics.
In addition, in order to evaluate the decomposition of the IV administered DONS mixture the DON-AUC was divided by the sum of individually estimated AUCs for DONS 1 and DONS 2 and declared as F. In each case, the AUCs were corrected for the administered dose.

[2] = DONS/DON pattern in standard solution, bolus solution and pig plasma; assay type: physicochemical; settings: for Proportion in bolus solution: DONS standard mixed with physiological saline for IV bolus (pH 2.66); for Proportion in standard solution: DONS standard solution (pH 1.56); for Proportion in pig plasma: after IV 50 µg DONS mixture/kg BW
Procedure: as §3
Due to known dependency of DONS stability on pH value, we compared the pH of standard and bolus solutions. The determination was carried out with a pH meter (WTW GmbH, Weilheim, Germany). Both an addition of physiological saline and distilled water caused changes in pH value, and so shifts in DONS ratio took place.
as §4

[3] = DONS mixture added to uncontaminated diet
[4] = cited from earlier work; for pH range of stability: DONS 2: for 24 h
[5] = Clinical symptoms after intravenous or oral bolus; assay type: in vivo, pigs; settings: for clinical symptoms: pigs, after single bolus
Procedure: as §1, §2

[6] = cited from earlier work
[7] = cited from earlier work; remark: listed apart in the source
[8] = DONS 1 or DONS 2 in plasma (DON equivalents), DONSiv 50 µg/kg BW, individual pigs IV6-11
[9] = DONS 1 or DONS 2 in plasma (DON equivalents), DONSiv 50 µg/kg BW, mean, n=6
[10] = DONS 1 or DONS 2 in plasma (DON equivalents), IV 50 µg DONS mixture/kg BW (DONSiv), individual pigs IV6-11
[11] = DONS 1 or DONS 2 in plasma, DONSiv 50 µg/kg BW, individual pigs IV6-11
[12] = DONS 1 or DONS 2 in plasma, DONSiv 50 µg/kg BW, mean, n=6
[13] = DON in plasma after DONSiv 50 µg/kg BW, individual pigs IV6-11
[14] = DON in plasma after DONSiv 50 µg/kg BW, mean, n=6
[15] = DON in plasma, IV 50 µg DON/kg BW, individual pigs IV 1-5, listed as DONiv
[16] = DON in plasma, IV 50 µg DON/kg BW, mean, n=5

For `CC12CC3(O)[C@@H]4O[C@H]([C@H]1S(=O)(=O)O)[C@](CO)([C@H](O)C2=O)[C@@]3(C)C[C@H]4O` [DONS 1], the “Vd(area), apparent volume of distribution” value (“Vd(area), apparent volume” below) ([1]; individual pigs IV6-11) was 0.35 L/kg and 0.48 L/kg and 0.51 L/kg and 0.37 L/kg and 0.44 L/kg and 0.42 L/kg, the “Vd(area), apparent volume” value ([1]; mean, n=6) was 0.4 L/kg and the “AUC, area under the curve” value [1, 8] was 179.7 ng·h/mL and 143.2 ng·h/mL and 167.6 ng·h/mL and 187.8 ng·h/mL and 163.4 ng·h/mL and 167.8 ng·h/mL. For the same molecule, the B [1, 8] was 74.30 ng/mL and 55.10 ng/mL and 61.46 ng/mL and 75.58 ng/mL and 67.17 ng/mL and 69.69 ng/mL, the A [1, 9] was 104.2 ng/mL and the “AUC, area under the curve” value [1, 9] was 168.2 ng·h/mL. The B [1, 9] was 67.2 ng/mL, the A [1, 10] was 86.78 ng/mL and 61.27 ng/mL and 60.09 ng/mL and 257.42 ng/mL and 79.19 ng/mL and 80.20 ng/mL and the “t1/2β, half-life of elimination” value [1, 11] was 0.87 h and 0.96 h (2×) and 1.18 h and 0.99 h and 0.98 h. The “α, rate constant of distribution phase” value [1, 11] was 11.35 h⁻¹ and 13.56 h⁻¹ and 4.94 h⁻¹ and 20.41 h⁻¹ and 4.55 h⁻¹ and 10.96 h⁻¹, the “β, rate constant of elimination phase” value [1, 11] was 0.80 1/h and 0.72 1/h (2×) and 0.59 1/h and 0.70 1/h and 0.71 1/h and the “α, rate constant of distribution phase” value [1, 12] was 11.0 h⁻¹. For the same molecule, the “β, rate constant of elimination phase” value [1, 12] was 0.7 h⁻¹, the “peak concentration in plasma (mean of A + B)” value [1] was 171.4 ng/mL and the stability in plasma [1] was “stable in plasma”. For the same molecule, the “Proportion in bolus solution” value [2] was 69.75%, the “Proportion in standard solution” value [2] was 26.43% and the “Proportion in pig plasma” value [2] was 59.49%. For the same molecule, the “detection in plasma after oral DONSpo” value [3] was “rarely, traces of DONS 1 and 2 (<LOQ)” and the “pH range of stability” value [4] was 2–10.

In the case of `CC1=C[C@H]2O[C@@H]3[C@H](O)C[C@](C)([C@@]2(CO)[C@H](O)C1=O)[C@]31CO1` [DON, deoxynivalenol], the “mean maximum concentration of DON in plasma (A + B)” value ([1]; DON after DONSiv 50 µg/kg BW) is reported as 17.33 ng/mL, the B [1, 13] is reported as 7.13 ng/mL and 5.49 ng/mL and 5.08 ng/mL and 2.91 ng/mL and 6.48 ng/mL and 3.17 ng/mL and the “F, release rate of DON from DONS” value [1, 13] is reported as 12.5% and 17.3% (2×) and 18.2% and 23.8% and 15.3%. For the same molecule, the “α, rate constant of distribution phase” value [1, 13] was 5.02 h⁻¹ and 3.23 h⁻¹ and 4.83 h⁻¹ and 1.72 h⁻¹ and 3.99 h⁻¹ and 2.25 h⁻¹, the “β, rate constant of elimination phase” value [1, 13] was 0.32 h⁻¹ and 0.22 h⁻¹ and 0.34 h⁻¹ and 0.17 h⁻¹ and 0.29 h⁻¹ and 0.27 h⁻¹ and the A [1, 14] was 12.29 ng/mL. The B [1, 14] was 5.04 ng/mL, the “F, release rate of DON from DONS” value [1, 14] was 17.37% and the “α, rate constant of distribution phase” value [1, 14] was 3.51 h⁻¹. The “β, rate constant of elimination phase” value [1, 14] was 0.27 h⁻¹, the A ([1]; DON in plasma after IV 50 µg DONS mixture/kg BW (DONSiv), individual pigs IV6-11) was 12.44 ng/mL and 8.40 ng/mL and 17.13 ng/mL and 12.74 ng/mL and 12.50 ng/mL and 10.51 ng/mL and the A ([1]; DON in plasma, IV 50 µg DON/kg BW, two-compartment fit, individual pigs IV 1-5, listed as DONiv) was 136.4 ng/mL and 624.9 ng/mL and 121.9 ng/mL and 56.2 ng/mL and 74.5 ng/mL. The B [1, 15] was 96.5 ng/mL and 83.6 ng/mL and 73.5 ng/mL and 64.5 ng/mL and 84.1 ng/mL, the “α, rate constant of distribution phase” value [1, 15] was 7.35 h⁻¹ and 18.74 h⁻¹ and 13.71 h⁻¹ and 3.88 h⁻¹ and 6.29 h⁻¹ and the “β, rate constant of elimination phase” value [1, 15] was 0.36 h⁻¹ and 0.33 h⁻¹ and 0.35 h⁻¹ and 0.34 h⁻¹ and 0.38 h⁻¹. For the same molecule, the A [1, 16] was 202.8 ng/mL, the B [1, 16] was 80.5 ng/mL and the “α, rate constant of distribution phase” value [1, 16] was 9.99 h⁻¹. The “β, rate constant of elimination phase” value [1, 16] was 0.35 h⁻¹, the “number of retching and vomiting episodes” value ([5]; IV 50 µg DON/kg BW) was “between three and nine times” and the “time of retching and vomiting after bolus” value ([5]; IV 50 µg DON/kg BW) was 6 to 16 min. For the same molecule, the clinical symptoms [5] was “sickness and emesis within minutes”, the clinical symptoms ([5]; listed as DONiv) was “retching and vomiting” and the “Proportion in bolus solution” value [2] was 19.26%. For the same molecule, the “Proportion in standard solution” value [2] was 0%, the “Proportion in pig plasma” value [2] was 10.45% and the “initial concentration A + B of DON at t = 0” value ([6]; IV DON) was 46.2–139.9 ng/mL plasma. For the same molecule, the maximum concentration cmax ([6]; oral, DON in wheat) was 15.2 ng/mL, the tmax ([6]; oral, DON in wheat) was 1.65 h and the “total DON bioavailability” value ([6]; single oral dose, DON-contaminated wheat) was 91.5% ± 27.4%. The “share of orally-administered DON absorbed in the stomach and the first third of the small intestine” value [7] was ~90%.

For `C[C@H]1[C@H](S(=O)(=O)O)[C@H]2O[C@@H]3[C@H](O)C[C@](C)([C@]24COC1(O)[C@H]4O)[C@]31CO1` [DONS 2], the “Vd(area), apparent volume” value ([1]; individual pigs IV6-11) was 0.68 L/kg and 0.96 L/kg and 0.67 L/kg and 1.08 L/kg and 0.53 L/kg and 0.69 L/kg, the “Vd(area), apparent volume” value ([1]; mean, n=6) was 0.8 L/kg and the “AUC, area under the curve” value [1, 8] was 81.5 ng·h/mL and 74.6 ng·h/mL and 80.1 ng·h/mL and 78.1 ng·h/mL and 105.8 ng·h/mL and 94.6 ng·h/mL. The B [1, 8] was 32.87 ng/mL and 20.05 ng/mL and 29.84 ng/mL and 19.94 ng/mL and 34.75 ng/mL and 25.99 ng/mL, the A [1, 9] was 52.7 ng/mL and the “AUC, area under the curve” value [1, 9] was 85.8 ng·h/mL. The B [1, 9] was 27.2 ng/mL, the A [1, 10] was 46.01 ng/mL and 23.41 ng/mL and 43.30 ng/mL and 34.43 ng/mL and 126.49 ng/mL and 42.60 ng/mL and the “t1/2β, half-life of elimination” value [1, 11] was 0.77 h (2×) and 0.99 h and 0.74 h and 1.17 h and 0.91 h. For the same molecule, the “α, rate constant of distribution phase” value [1, 11] was 12.01 h⁻¹ and 4.93 h⁻¹ and 9.99 h⁻¹ and 4.03 h⁻¹ and 17.39 h⁻¹ and 4.41 h⁻¹, the “β, rate constant of elimination phase” value [1, 11] was 0.90 1/h (2×) and 0.70 1/h and 0.93 1/h and 0.59 1/h and 0.76 1/h and the “α, rate constant of distribution phase” value [1, 12] was 8.8 h⁻¹. The “β, rate constant of elimination phase” value [1, 12] was 0.8 h⁻¹, the “peak concentration in plasma (mean of A + B)” value [1] was 79.9 ng/mL and the stability in plasma [1] was “stable in plasma”. For the same molecule, the “Proportion in bolus solution” value [2] was 10.69%, the “Proportion in standard solution” value [2] was 14.03% and the “Proportion in pig plasma” value [2] was 28.25%. The “detection in plasma after oral DONSpo” value [3] was “rarely, traces of DONS 1 and 2 (<LOQ)”, the “pH range of stability” value [4] was 2–7 and the “pH values at which back-formation or degradation to DON is observed” value [4] was 8–10.
